Key:
Homo sapiens [1] = species: Homo sapiens; assay: cells
physchem = details: octanol/water
Description: Partition coefficient (logP)

Homo sapiens [2] = species: Homo sapiens; assay: Inhibitory activity against Leukotriene (LTB4) biosynthesis in isolated human polymorphonuclear cells (PMNs); not active; format: functional

| Compound | IC50 (Homo sapiens [1]) | logP (physchem) | IC50 (Homo sapiens [2]) |
| --- | --- | --- | --- |
| COC(=O)c1ccccc1OCCCOc1cc2c(cc1O)CCO2 | 0.047 µM | 3.4 |  |
| Oc1cc2c(cc1Sc1ccccn1)OCC2 | 2.8 µM | 2.8 |  |
| Oc1cc2c(cc1Sc1ccccc1)OCC2 | 0.14 µM | 4.1 |  |
| Oc1cc2c(cc1SCc1ccccc1)OCC2 | 0.11 µM | 4.1 |  |
| Oc1cc2c(cc1Sc1ccncc1)OCC2 | 2.6 µM | 2.8 |  |
| Oc1ccc2c(c1CCCSc1ccccc1)CCO2 | 0.12 µM | 4.9 |  |
| CCCc1cc2c(c(C(C)(C)C)c1O)CCO2 | 0.43 µM | 5.4 |  |
| Oc1ccc2c(c1)CCO2 | 4 µM | 1.7 |  |
| CCCc1cc2c(c(Br)c1O)CCO2 | 0.065 µM | 4.3 |  |
| Cc1c(O)c(CCCSc2ccccc2)cc2c1CCO2 | 0.019 µM | 5.9 |  |
| Oc1cc2c(cc1OCCCOc1ccccc1)OCC2 | 0.32 µM | 3.4 |  |
| CCCc1c(O)ccc2c1CCO2 | 1 µM | 3.4 |  |
| CCCc1cc2c(c(C)c1O)CCO2 | 0.16 µM | 4.1 |  |
| Oc1ccc2c(c1CCCNc1ccccc1)CCO2 | 1.4 µM | 3.8 |  |
| COC(=O)c1ccc(OCCCOc2cc3c(cc2O)CCO3)cc1 | 0.071 µM | 3.7 |  |
| C=CCc1c(O)ccc2c1CCO2 | 2.1 µM | 2.9 |  |
| Oc1ccc2c(c1CCCOc1ccccc1)CCO2 | 0.29 µM | 4.3 |  |
| C=CCc1cc2c(c(C)c1O)CCO2 | 0.13 µM | 3.5 |  |
| Oc1ccc2c(c1CCCSCc1cccnc1)CCO2 | 2 µM | 3.3 |  |
| Oc1cc2c(cc1Oc1ccccc1)OCC2 | 0.42 µM | 3.7 |  |
| Oc1cc2c(cc1Sc1cccnc1)OCC2 | 1.2 µM | 2.8 |  |
| COC(=O)Cc1ccc(OCCCOc2cc3c(cc2O)CCO3)cc1 | 0.12 µM | 3.1 |  |
| O=C1CCN(c2ccccc2)N1 [PHENIDONE] | 8 µM |  |  |
| COC(=O)c1cccc(OCCCOc2cc3c(cc2O)CCO3)c1 | 0.068 µM | 3.7 |  |
| CC(C)(C)c1c(O)ccc2c1CCO2 | 0.73 µM | 3.7 |  |

More lines, now with the values ahead:

| IC50 (Homo sapiens [1]) | logP (physchem) | IC50 (Homo sapiens [2]) | Compound |
| --- | --- | --- | --- |
| 33 µM | 1.4 |  | OCCCc1c(O)ccc2c1CCO2 |
| 0.028 µM | 4.5 |  | Oc1cc2c(cc1CCCOc1ccc(F)cc1)OCC2 |
| 3.2 µM | 1.3 |  | COCCOc1cc2c(cc1O)CCO2 |
| 0.79 µM | 3.7 |  | CC(C)(C)c1cc2c(cc1O)CCO2 |
| 0.019 µM | 4.9 |  | Oc1cc2c(cc1CCCSc1ccccc1)OCC2 |
| 0.34 µM | 3.5 |  | OCCc1ccc(OCCCc2cc3c(cc2O)CCO3)cc1 |
| 0.06 µM | 3.5 |  | OCCc1cccc(OCCCc2cc3c(cc2O)CCO3)c1 |
|  |  | Not Active | O=C(O)CCCc1cc2c(cc1O)CCO2 |
| 0.055 µM | 5.1 |  | Oc1cc2c(cc1CCCOc1ccc(Cl)cc1)OCC2 |
| 0.29 µM | 3.4 |  | CCCc1cc2c(cc1O)CCO2 |
| 0.066 µM | 4.4 |  | Oc1cc2c(cc1SCCc1ccccc1)OCC2 |
| 5.1 µM |  |  | O=C(O)c1cccc(OCCCOc2cc3c(cc2O)CCO3)c1 |
| 0.28 µM | 3.9 |  | Oc1cc2c(cc1Cc1ccccc1)OCC2 |
| 1.4 µM | 1.8 |  | N#CCCCc1cc2c(cc1O)CCO2 |
| 0.3 µM | 3.3 |  | CC(C)c1cc2c(cc1O)CCO2 |
| 0.051 µM | 4.2 |  | Oc1cc2c(cc1OCCCc1ccccc1)OCC2 |
| 0.47 µM | 2.6 |  | CCCOc1cc2c(cc1O)CCO2 |
|  |  | Not Active | O=C(O)Cc1ccc(OCCCOc2cc3c(cc2O)CCO3)cc1 |
| 0.48 µM | 2.9 |  | C=CCc1cc2c(cc1O)CCO2 |
| 10 µM | 1.4 |  | OCCCc1cc2c(cc1O)CCO2 |
| 0.057 µM | 4.3 |  | Oc1cc2c(cc1CCCOc1ccccc1)OCC2 |
| 0.028 µM | 4.9 |  | Oc1cc2c(cc1SCCCc1ccccc1)OCC2 |
| 0.14 µM | 3.8 |  | Oc1cc2c(cc1CCCNc1ccccc1)OCC2 |
|  |  | Not Active | O=C(O)c1ccccc1OCCCOc1cc2c(cc1O)CCO2 |
| 0.29 µM | 3.5 |  | OCCc1ccccc1OCCCc1cc2c(cc1O)CCO2 |
| 0.18 µM | 3.1 |  | CCCCOc1cc2c(cc1O)CCO2 |
| 0.009 µM | 6 |  | CCCc1ccc(OCCCc2cc3c(cc2O)CCO3)cc1 |
| 0.28 µM | 3.3 |  | Oc1cc2c(cc1CCCSCc1cccnc1)OCC2 |

Reference: ChEMBL document CHEMBL1124454, “2,3-Dihydro-5-benzofuranols as antioxidant-based inhibitors of leukotriene biosynthesis” (J Med Chem, 1989)
